System: SV129 mice
Assay: Neurogenesis (proliferation, survival, maturation) in the SV129 mouse model
Format: in vivo
Details: compared to VEH
Text: We next assessed the effects of GL-II-73 on neurogenesis using the SV129 mouse model Kim et al. 2017. Neural Plasticity, doi.org.10.1155/2017/5863258. Specifically, we assessed the effects of treatment on neuronal cell proliferation, survival, and maturation. It is now recognized that neurogenesis occurs not only during development, but also in the adult brain. […] Specifically, adult neurogenesis is known to occur in three regions in the mammalian brain: (i) the subgranular zone (SGZ) of the dentate gyrus in the hippocampus, which is a region that is involved in regulating learning and memory; (ii) the subventricular zone (SVZ), which is situated throughout the lateral walls of the brain's lateral ventricles; and (ii) the amygdala. New neurons born in the SGZ migrate into the granule cell layer of the dentate gyrus and eventually become granule cells. These newborn neurons integrate into the existing circuitry and receive functional input. Adult neurogenesis in the hippocampus is therefore defined as the progression from neural stem cell to mature dentate granule neuron. All stages of adult neurogenesis are regulated by physiological activity, including the proliferation, differentiation, fate determination of adult neural stem cells (NSCs) and progenitors, and the survival, maturation, and integration of newborn neurons.
The stages of neurogenesis can be broken down into (i) proliferation, (ii) survival of the newly formed cells, and (iii) their maturation. Each can be evaluated using specific markers for proliferation, survival, and maturation. […] BrdU can be used to show survival of the newly proliferating cells since it is incorporated into the newly synthesized DNA of replicating cells and is then maintained in the newly formed cells. Thus, quantitative immunohistochemistry against BrdU is used as a proxy of survival. Finally, doublecortin can be used as a proxy of maturation. Previous studies have shown that all steps of neurogenesis were down regulated in the SV129 mice, and further that chronic treatment with fluoxetine, a first line monoaminergic antidepressant, increased the neurogenesis in this mouse model. We therefore used this model system to assess the effects of chronic treatment with GL-II-73 on neurogenesis.
Fluoxetine treatment was used as a positive control in each experiment.

CNCCC(Oc1ccc(C(F)(F)F)cc1)c1ccccc1 (stereo not shown) [FLX, fluoxetine]
proliferation: number of K167-positive cells (chronic treatment (4 weeks), FIG. 13A, FLX p<0.001, GL-II-73 p<0.05): increased the number of K167-positive cells | survival: BrdU-positive cells (chronic treatment (4 weeks), FIG. 13B): only FLX increased BrdU-positive cells | maturation: number of DCX+cells (chronic treatment, FIG. 14A, ps<0.05): increased with FLX compared to VEH | maturation index (DCX+cells possessing tertiary dendrites over the total DCX+cells) (chronic treatment, FIG. 14B, ps<0.01): an increase with both FLX and GL-II-73

— patent US12636291B2, “Compositions and methods relating to use of agonists of ALPHA5-containing GABAA receptors” (Centre for Addiction and Mental Health, priority 2019, dated 2026)
